For seven compounds, TGI results are on record in PubChem BioAssay (NCI).

Assay in all cases: NCI-60 cell line screen, 48 h
In assay [1] the test system is SF-268 CNS.
The test system of assay [2] is RPMI-8226 leukemia.
The test system of assay [3] is OVCAR-3 ovarian.
Assay [4] concerns SNB-19 CNS.
Assay [5] has as its system U251 CNS.
The test system of assay [6] is EKVX NSCLC.
The subject of assay [7] is UACC-257 melanoma.
In assay [8] the test system is NCI-H226 lung.
Assay [9] relates to A498 renal.
Assay [10] concerns MDA-MB-435.
Assay [11] concerns IGROV1 ovarian.
Assay [12] concerns HOP-92 NSCLC.
Assay [13] concerns MDA-N.
The subject of assay [14] is SK-MEL-5 melanoma.
The test system of assay [15] is DU-145 prostate.
Assay [16] relates to OVCAR-5 ovarian.
The test system of assay [17] is UACC-62 melanoma.
The test system of assay [18] is LOX IMVI melanoma.
The test system of assay [19] is SNB-75 CNS.

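In this assay, cells in 96-well plates receive the compound at five concentrations for 48 hours. Endpoints are linearly interpolated between the surrounding concentrations. TGI marks complete inhibition of growth.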

Turning to `O=c1cc(-c2cccc(OCc3ccccc3)c2)[nH]c2cc3c(cc12)OCO3`, the TGI in assay [1] was above 70.3 µM; in [2], 0.766 µM; in assay [3], 3.58 µM; in [4], 14.9 µM; in [5] it was 1.84 µM; in assay [6] it was above 100 µM. Further, the TGI in [7] was above 100 µM; in [8], 7.79 µM; in assay [9], 3.16 µM; in assay [10], 0.36 µM; in assay [11] it was above 100 µM; in assay [12], 18.6 µM. For the same compound, the TGI in assay [13] was 0.417 µM; in [14] it was above 100 µM; in assay [15] it was above 100 µM; in [16] it was above 100 µM; in [17], 12.3 µM; in assay [18], above 100 µM.

For the compound `COC(=O)[C@H](COC(=O)/C=C/c1ccc(OC(C)=O)c(OC(C)=O)c1)NC(=O)/C=C/c1ccc(OC(C)=O)c(OC(C)=O)c1`, the TGI in [19] is 30.1 µM; in assay [2], above 100 µM; in [3], 33.5 µM; in [4], 35.8 µM; in assay [5] it was above 100 µM; in [6], 38.9 µM. For the same compound, the TGI in assay [7] was 42.1 µM; in assay [8], 56.7 µM; in assay [9] it was above 100 µM; in [10], 45.5 µM; in [11], 43 µM; in assay [12], 49.3 µM. The TGI in assay [13] came to 38.8 µM; in [14], 31.6 µM; in assay [15] it was 29.4 µM; in assay [16], 49.7 µM; in assay [17] it was 31.9 µM; in assay [18] it was 95.6 µM.

As for `Cc1cn(C2CC(NC(=NCC3OC(n4cnc5c(N)ncnc54)CC3O)NC#N)C(CO)O2)c(=O)[nH]c1=O` (stereo unspecified), the TGI in [1], in assay [19], in assay [3], in [4], in assay [5] and in [6] was above 100 µM in each case. Further, the TGI in assay [7], in [8], in [9], in [10], in assay [11] and in assay [12] was above 100 µM throughout. Besides, the TGI in assay [13], in assay [14], in assay [15], in [16], in [17] and in assay [18] was above 100 µM throughout.

Turning to `CC1c2cc(c3c(c2O)CN([C@@H](C)C2CCCCC2)CO3)C(C)c2cc(c3c(c2O)CN([C@@H](C)C2CCCCC2)CO3)C(C)c2cc(c3c(c2O)CN([C@@H](C)C2CCCCC2)CO3)C(C)c2cc1c1c(c2O)CN([C@@H](C)C2CCCCC2)CO1` (stereo partly specified), the TGI in assay [1] turned out to be 2.85 µM; in assay [19], 2.77 µM; in assay [2] it was 2.15 µM; in [3] it was 2.93 µM; in assay [4] it was 3.44 µM; in assay [5], 2.83 µM. Further, the TGI in assay [6] stood at 2.45 µM; in assay [7] it was 3.24 µM; in assay [8], 2.22 µM; in assay [9], 3.57 µM; in assay [10], 3.62 µM; in [11] it was 2.61 µM. Besides, the TGI in assay [12] was determined as 2.85 µM; in assay [13], 3.04 µM; in [14] it was 3.46 µM; in [15] it was 2.64 µM; in assay [16], 4.04 µM; in [17] it was 3.86 µM.

On to `CCOP(=O)(OCC)C(F)(F)Cc1cnc(C)c2c1COC(C)(C)O2`, for which the TGI in [1], in assay [19], in [2], in [3], in [4] and in [5] was above 10 µM in each case. Further, the TGI in assay [6], in assay [7], in assay [8], in [9], in [10] and in [11] was above 10 µM each time. Further, the TGI in assay [12], in assay [13], in assay [14], in assay [15], in assay [16] and in [17] was above 10 µM in each case.

Take `O=C(Nc1ccc(Cl)cc1)NS(=O)(=O)c1c(-c2ccccc2)oc2ccccc2c1=O`: the TGI in [1], in [19], in assay [2], in assay [4], in assay [5] and in assay [6] was above 100 µM throughout. The TGI in [7], in [8], in [9], in [10], in assay [11] and in assay [12] was above 100 µM each time. The TGI in [13] was above 100 µM; in assay [14], above 100 µM; in assay [15], above 100 µM; in assay [16] it was above 100 µM; in [17] it was 13.6 µM; in assay [18], above 100 µM.

Regarding `CC(C)N1[C@@H]2CCCC[C@H]2N(C(C)C)P1(=O)C(=O)/C=C/c1ccccc1`, the TGI in [1] came to 7.33 µM; in assay [2] it was 9.32 µM; in assay [3], 5.74 µM; in [4], 18.3 µM; in assay [5] it was 16.5 µM; in assay [6], 13.8 µM. Moreover, the TGI in assay [7] turned out to be 13.5 µM; in [8] it was 24.6 µM; in assay [9] it was 16.9 µM; in assay [10] it was 3.74 µM; in assay [11], 4.37 µM; in assay [12], 6.53 µM. Besides, the TGI in assay [13] was determined as 3.82 µM; in assay [14], 3.44 µM; in [15], 4.94 µM; in assay [16] it was 6.66 µM; in assay [17] it was 9.02 µM; in [18] it was 4.55 µM.
